In one assay the test system is EKVX. In words: Cytotoxicity against human EKVX cells assessed as cell viability at 10 uM incubated for 48 hrs by sulforhodamine B assay relative to control. The class given is functional. Conditions: read-out: Activity.
The test system of the next assay is KM12. In words: Cytotoxicity against human KM12 cells assessed as cell viability at 10 uM incubated for 48 hrs by sulforhodamine B assay relative to control. The assay is classed as functional. Conditions: read-out: Activity.
A further assay deals with SK-OV-3. The assay is described as follows: Cytotoxicity against human SK-OV-3 cells assessed as cell viability at 10 uM incubated for 48 hrs by sulforhodamine B assay relative to control. The class given is functional. The conditions noted are these: read-out: Activity.
The subject of the next assay is Malme-3M. In words: Cytotoxicity against human Malme-3M cells assessed as cell viability at 10 uM incubated for 48 hrs by sulforhodamine B assay relative to control. The assay is classed as functional. Conditions: read-out: Activity.
The next assay has as its system UACC-62. The assay is described as follows: Cytotoxicity against human UACC-62 cells assessed as cell viability at 10 uM incubated for 48 hrs by sulforhodamine B assay relative to control. Conditions: read-out: Activity. The class given is functional.
In a further assay the test system is SW-620. In words: Cytotoxicity against human SW-620 cells assessed as cell viability at 10 uM incubated for 48 hrs by sulforhodamine B assay relative to control. The class given is functional. The conditions noted are these: read-out: Activity.
The subject of a further assay is HL-60(TB). The assay is described as follows: Cytotoxicity against human HL-60(TB) cells assessed as cell viability at 10 uM incubated for 48 hrs by sulforhodamine B assay relative to control. Conditions: read-out: Activity. The assay is classed as functional.
A further assay concerns NCI-H460. The assay is described as follows: Cytotoxicity against human NCI-H460 cells assessed as cell viability at 10 uM incubated for 48 hrs by sulforhodamine B assay relative to control. The assay is classed as functional. The conditions noted are these: read-out: Activity.
For another assay, the system named is NCI-H522. The assay is described as follows: Cytotoxicity against human NCI-H522 cells assessed as cell viability at 10 uM incubated for 48 hrs by sulforhodamine B assay relative to control. The conditions noted are these: read-out: Activity. The class given is functional.
For the next assay, the system named is MDA-MB-468. The assay is described as follows: Cytotoxicity against human MDA-MB-468 cells assessed as cell viability at 10 uM incubated for 48 hrs by sulforhodamine B assay relative to control. The assay is classed as functional. The conditions noted are these: read-out: Activity.
Assay [1] has as its target RAF proto-oncogene serine/threonine-protein kinase (Homo sapiens, UniProt P04049). The assay is described as follows: Inhibition of human CRAF using MEK1 as substrate by [gamma-33P]-ATP assay.
For assay [2], the target named is Serine/threonine-protein kinase B-raf (Homo sapiens, UniProt P15056, V600E). The assay is described as follows: Inhibition of human BRAF V600E mutant using MEK1 as substrate by […] assay.
The subject of another assay is T47D. The assay is described as follows: Cytotoxicity against human T47D cells assessed as cell viability at 10 uM incubated for 48 hrs by sulforhodamine B assay relative to control. The assay is classed as functional. Conditions: read-out: Activity.
For a further assay, the system named is SK-MEL-28. In words: Cytotoxicity against human SK-MEL-28 cells assessed as reduction in cell viability by MTT assay. The assay is classed as functional, cell-based.
A further assay deals with OVCAR-4. The assay is described as follows: Cytotoxicity against human OVCAR-4 cells assessed as cell viability at 10 uM incubated for 48 hrs by sulforhodamine B assay relative to control. The class given is functional. Conditions: read-out: Activity.
The next assay deals with NCI/ADR-RES. The assay is described as follows: Cytotoxicity against human NCI/ADR-RES cells assessed as cell viability at 10 uM incubated for 48 hrs by sulforhodamine B assay relative to control. The assay is classed as functional. Conditions: read-out: Activity.
In the next assay the test system is BT-549. In words: Cytotoxicity against human BT-549 cells assessed as cell viability at 10 uM incubated for 48 hrs by sulforhodamine B assay relative to control. The assay is classed as functional. The conditions noted are these: read-out: Activity.
A further assay relates to A-375. In words: Cytotoxicity against human A-375 cells assessed as reduction in cell viability by MTT assay. The assay is classed as functional, cell-based.
In assay [3] the target is Serine/threonine-protein kinase B-raf (Homo sapiens, UniProt P15056). In words: Inhibition of human BRAF using MEK1 as substrate by […] assay.
The next assay has as its system CCRF-CEM. The assay is described as follows: Cytotoxicity against human CCRF-CEM cells assessed as cell viability at 10 uM incubated for 48 hrs by sulforhodamine B assay relative to control. The assay is classed as functional. Conditions: read-out: Activity.
For a further assay, the system named is MDA-MB-435. In words: Cytotoxicity against human MDA-MB-435 cells assessed as cell viability at 10 uM incubated for 48 hrs by sulforhodamine B assay relative to control. The assay is classed as functional. Conditions: read-out: Activity.
In the next assay the test system is SF-268. The assay is described as follows: Cytotoxicity against human SF-268 cells assessed as cell viability at 10 uM incubated for 48 hrs by sulforhodamine B assay relative to control. The assay is classed as functional. Conditions: read-out: Activity.
The next assay deals with K562. In words: Cytotoxicity against human K562 cells assessed as cell viability at 10 uM incubated for 48 hrs by sulforhodamine B assay relative to control. Conditions: read-out: Activity. The assay is classed as functional.

Molecules are shown by their SMILES. A value given as a limit tells only on which side of the number the result lay.

Sequence of RAF proto-oncogene serine/threonine-protein kinase (P04049 whole entry): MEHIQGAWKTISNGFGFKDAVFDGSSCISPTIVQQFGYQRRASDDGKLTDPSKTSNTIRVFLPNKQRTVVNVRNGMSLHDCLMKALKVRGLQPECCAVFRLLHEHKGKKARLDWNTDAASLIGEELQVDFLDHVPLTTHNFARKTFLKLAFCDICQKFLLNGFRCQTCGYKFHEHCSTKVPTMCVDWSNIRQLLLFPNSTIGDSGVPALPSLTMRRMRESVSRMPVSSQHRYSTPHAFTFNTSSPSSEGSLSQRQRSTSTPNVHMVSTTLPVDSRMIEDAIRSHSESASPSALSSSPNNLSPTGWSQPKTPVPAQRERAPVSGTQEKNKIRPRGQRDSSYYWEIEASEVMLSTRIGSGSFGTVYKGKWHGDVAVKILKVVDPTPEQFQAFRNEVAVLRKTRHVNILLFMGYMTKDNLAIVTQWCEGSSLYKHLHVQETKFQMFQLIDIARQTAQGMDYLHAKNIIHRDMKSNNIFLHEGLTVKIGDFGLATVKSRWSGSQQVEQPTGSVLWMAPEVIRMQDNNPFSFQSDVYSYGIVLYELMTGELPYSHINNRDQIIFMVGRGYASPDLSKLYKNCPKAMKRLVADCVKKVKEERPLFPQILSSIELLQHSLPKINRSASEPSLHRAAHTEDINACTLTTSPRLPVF
Sequence of Serine/threonine-protein kinase B-raf (Homo sapiens, UniProt P15056, V600E) (P15056 2-766 V600E limits assumed): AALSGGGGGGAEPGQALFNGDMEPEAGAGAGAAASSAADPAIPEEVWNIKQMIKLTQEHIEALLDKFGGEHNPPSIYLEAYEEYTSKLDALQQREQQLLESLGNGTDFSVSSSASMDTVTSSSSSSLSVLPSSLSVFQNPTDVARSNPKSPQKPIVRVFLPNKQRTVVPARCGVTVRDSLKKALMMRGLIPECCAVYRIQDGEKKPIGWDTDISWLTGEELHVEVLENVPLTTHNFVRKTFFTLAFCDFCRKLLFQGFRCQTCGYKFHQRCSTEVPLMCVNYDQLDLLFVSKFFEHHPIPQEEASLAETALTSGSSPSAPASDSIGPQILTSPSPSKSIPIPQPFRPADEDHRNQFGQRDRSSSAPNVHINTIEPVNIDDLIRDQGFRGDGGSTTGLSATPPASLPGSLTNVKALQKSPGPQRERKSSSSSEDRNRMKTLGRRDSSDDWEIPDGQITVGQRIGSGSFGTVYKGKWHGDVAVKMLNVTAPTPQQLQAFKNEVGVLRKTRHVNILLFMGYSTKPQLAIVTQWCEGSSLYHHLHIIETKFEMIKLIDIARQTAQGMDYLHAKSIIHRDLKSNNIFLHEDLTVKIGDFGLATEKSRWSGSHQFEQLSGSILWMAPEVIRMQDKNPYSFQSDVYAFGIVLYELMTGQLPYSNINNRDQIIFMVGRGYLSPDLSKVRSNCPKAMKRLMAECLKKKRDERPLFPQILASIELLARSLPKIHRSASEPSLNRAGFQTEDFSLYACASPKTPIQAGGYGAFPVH
Sequence of Serine/threonine-protein kinase B-raf (Homo sapiens, UniProt P15056) (P15056 whole entry): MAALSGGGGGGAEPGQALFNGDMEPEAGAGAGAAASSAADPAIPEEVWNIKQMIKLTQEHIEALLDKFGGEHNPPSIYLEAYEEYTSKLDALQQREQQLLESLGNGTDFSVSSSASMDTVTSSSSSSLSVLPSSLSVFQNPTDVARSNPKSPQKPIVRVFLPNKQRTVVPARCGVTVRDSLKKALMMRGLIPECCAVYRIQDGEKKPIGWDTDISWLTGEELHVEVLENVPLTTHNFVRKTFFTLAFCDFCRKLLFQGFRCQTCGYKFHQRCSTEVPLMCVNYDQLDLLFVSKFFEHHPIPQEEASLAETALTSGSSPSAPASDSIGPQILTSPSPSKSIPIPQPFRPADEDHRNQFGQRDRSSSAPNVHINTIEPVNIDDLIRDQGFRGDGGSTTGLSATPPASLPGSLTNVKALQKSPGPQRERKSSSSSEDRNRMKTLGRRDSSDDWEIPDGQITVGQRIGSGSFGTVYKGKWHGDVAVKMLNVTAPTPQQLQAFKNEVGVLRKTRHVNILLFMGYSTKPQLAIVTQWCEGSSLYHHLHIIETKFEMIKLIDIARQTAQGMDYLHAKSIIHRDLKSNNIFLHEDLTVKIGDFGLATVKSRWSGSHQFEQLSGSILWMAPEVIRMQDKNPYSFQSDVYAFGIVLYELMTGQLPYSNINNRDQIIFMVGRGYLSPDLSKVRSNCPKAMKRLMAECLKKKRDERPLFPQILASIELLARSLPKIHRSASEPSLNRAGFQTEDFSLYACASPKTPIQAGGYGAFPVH

Regarding `O=C(NCCNc1nccc(-c2c(-c3cccc(F)c3)nc3sccn23)n1)c1ccc(Cl)cc1`, the viability at 10 µM is 63.2% in the assay on EKVX; 62.8% in the assay on KM12; 80.9% in the assay on SK-OV-3; 34.9% with Malme-3M; 14.7% in the assay with UACC-62; 65.2% with SW-620. The viability at 10 µM stood at 99.2% with HL-60(TB); 35.8% with NCI-H460; 68.4% with NCI-H522; 67.8% with MDA-MB-468; 49% in the assay on T47D; 77.9% in the assay with OVCAR-4. In addition, the viability at 10 µM in the assay with NCI/ADR-RES turned out to be 74.3%; with BT-549, 75.9%; with CCRF-CEM it was 58.1%; in the assay with MDA-MB-435, 32%; with SF-268 it was 67.9%; in the assay with K562, 54.4%. Further, the 50% inhibitory concentration (IC50) in [1] turned out to be 120 nM; in assay [2], 27.2 nM; with SK-MEL-28, 8160 nM; in the assay with A-375, 2570 nM; in assay [3], 105 nM.
For the compound `Cc1ccc(S(=O)(=O)NCCCNc2nccc(-c3c(-c4cccc(F)c4)nc4sccn34)n2)cc1`, the viability at 10 µM worked out at 78.1% with EKVX; 67.3% in the assay on KM12; 75.2% with SK-OV-3; 116% in the assay on Malme-3M; 47.8% in the assay on UACC-62; 79.4% with SW-620. The viability at 10 µM with HL-60(TB) is 119%; with NCI-H460, 65.1%; in the assay on NCI-H522, 70.8%; with MDA-MB-468 it was 78.2%; in the assay with T47D, 34.5%; with OVCAR-4, 66.2%. For the same compound, the viability at 10 µM in the assay with NCI/ADR-RES turned out to be 79.7%; in the assay on BT-549, 84.5%; in the assay with CCRF-CEM, 62.7%; in the assay on MDA-MB-435 it was 48.8%; in the assay with SF-268 it was 65.9%; in the assay on K562, 52%. In addition, the 50% inhibitory concentration (IC50) in assay [1] is 143 nM; in assay [2], 89 nM; in the assay with SK-MEL-28, 9500 nM; with A-375 it was 8380 nM; in assay [3], 182 nM.
With `O=S(=O)(NCCCNc1nccc(-c2c(-c3cccc(F)c3)nc3sccn23)n1)c1ccc(Br)cc1`, the viability at 10 µM worked out at 57.4% in the assay on EKVX; 46.7% in the assay with KM12; 80.1% in the assay on SK-OV-3; 69.4% in the assay with Malme-3M; 18.3% in the assay on UACC-62; 77.6% in the assay on SW-620. For the same compound, the viability at 10 µM with HL-60(TB) is 75.9%; in the assay with NCI-H460, 60.5%; in the assay on NCI-H522 it was 37.9%; in the assay on MDA-MB-468, 32.3%; with T47D, 13.7%; in the assay on OVCAR-4, 34.2%. The viability at 10 µM with NCI/ADR-RES amounted to 34.4%; in the assay on BT-549, 64%; in the assay on CCRF-CEM, 36.8%; in the assay with MDA-MB-435 it was 31.6%; in the assay with SF-268, 60.6%; in the assay with K562 it was 25.4%. Moreover, the IC50 in assay [1] is 18.6 nM; in assay [2] it was 9.3 nM; in the assay on SK-MEL-28, 9400 nM; in the assay on A-375, 7040 nM; in [3] it was 22.9 nM.
For `O=S(=O)(NCCCNc1nccc(-c2c(-c3cccc(F)c3)nc3sccn23)n1)c1ccc(Cl)cc1`, the viability at 10 µM turned out to be 75.4% with EKVX; 72.7% in the assay on KM12; 78.1% with SK-OV-3; 107% in the assay on Malme-3M; 40.4% in the assay on UACC-62; 104% with SW-620. Further, the viability at 10 µM in the assay with HL-60(TB) amounted to 106%; in the assay on NCI-H460 it was 75.4%; with NCI-H522, 57.4%; with MDA-MB-468, 63.6%; with T47D, 25.6%; with OVCAR-4, 61.4%. The viability at 10 µM in the assay with NCI/ADR-RES was 67.4%; in the assay on BT-549, 85.4%; in the assay with CCRF-CEM it was 46.6%; with MDA-MB-435, 53.1%; in the assay with SF-268, 76.3%; in the assay on K562 it was 31.7%. The half-maximal inhibitory concentration (IC50) stood at 34 nM in assay [1]; 16.2 nM in assay [2]; 8450 nM in the assay with SK-MEL-28; 5900 nM with A-375; 49.6 nM in assay [3].
For the compound `O=S(=O)(NCCNc1nccc(-c2c(-c3cccc(F)c3)nc3sccn23)n1)c1ccc(C(F)(F)F)cc1`, the viability at 10 µM with EKVX is 86.5%; in the assay with KM12, 80.6%; in the assay on SK-OV-3, 71.8%; in the assay with Malme-3M it was 115%; with UACC-62 it was 73.3%; with SW-620, 110%. Besides, the viability at 10 µM in the assay with HL-60(TB) worked out at 121%; in the assay on NCI-H460, 94.7%; with NCI-H522 it was 85%; in the assay with MDA-MB-468, 71.3%; in the assay on T47D, 62.5%; in the assay with OVCAR-4 it was 85.4%. The viability at 10 µM in the assay on NCI/ADR-RES worked out at 88.8%; with BT-549 it was 79.3%; in the assay with CCRF-CEM it was 80.6%; in the assay with MDA-MB-435, 71.2%; with SF-268, 77.8%; in the assay on K562, 73.1%. Besides, the IC50 in assay [1] was determined as 88.4 nM; in [2], 22.3 nM; in the assay with SK-MEL-28, 8450 nM; in the assay with A-375, 7440 nM; in assay [3], 85.2 nM.
As to `O=S(=O)(NCCNc1nccc(-c2c(-c3cccc(F)c3)nc3sccn23)n1)c1ccc(F)cc1`, the viability at 10 µM came out at 62.7% in the assay with EKVX; 40.1% in the assay on KM12; 79.9% in the assay with SK-OV-3; 81.1% in the assay on Malme-3M; 44.4% with UACC-62; 63% in the assay with SW-620. Moreover, the viability at 10 µM in the assay on HL-60(TB) amounted to 95.1%; in the assay with NCI-H460 it was 35%; with NCI-H522, 67%; with MDA-MB-468 it was 63.1%; with T47D, 40.4%; in the assay on OVCAR-4, 59.3%. The viability at 10 µM worked out at 66.7% in the assay with NCI/ADR-RES; 78.6% in the assay with BT-549; 54.7% in the assay with CCRF-CEM; 31.5% with MDA-MB-435; 53.8% with SF-268; 38.8% with K562. In addition, the IC50 in the assay with SK-MEL-28 and in the assay on A-375 was 9450 nM each time.
For `O=S(=O)(NCCCNc1nccc(-c2c(-c3cccc(F)c3)nc3sccn23)n1)c1ccc(F)cc1`, the viability at 10 µM was 80.4% in the assay with EKVX; 62.7% in the assay with KM12; 81.6% in the assay with SK-OV-3; 102% in the assay with Malme-3M; 35.4% with UACC-62; 106% in the assay with SW-620. The viability at 10 µM with HL-60(TB) was 103%; in the assay with NCI-H460, 87.8%; with NCI-H522 it was 54%; with MDA-MB-468, 77.4%; in the assay on T47D, 18.6%; in the assay on OVCAR-4, 65.7%. Besides, the viability at 10 µM was found to be 60% in the assay with NCI/ADR-RES; 79.9% in the assay with BT-549; 53.7% in the assay on CCRF-CEM; 50.4% in the assay with MDA-MB-435; 73.9% in the assay with SF-268; 41.6% in the assay on K562. The values for the IC50 with SK-MEL-28 and with A-375 were > 20000 nM and 14500 nM, respectively.
